# Target: T1, PLD (phospholipase D)
# T1 construct: fused on or other part: N-terminal polyhistidine tag (pFastBac HTc) on either enzyme
# Assay: In vitro assay of PLD activity ([3H]-choline release from labelled PC)
# Type: biochemical, human
# Conditions: Table 1, monocyclic thiazolidinones of Formula I; PLD isoform not stated
# Protocol: Recombinant PLD1 and PLD2—Human PLD1 and PLD2 were isolated from Sf9 insect cells that had been infected with recombinant baculovirus vector, pFastBac™HTc vector (Life Technologies, Gaithersburg, Md.), containing PLD1 or PLD2 cDNAs.
# PLD1 activity was assayed by measuring the generation of [^3H]-choline from [choline-methyl^3H](16:0, 16:0)PC.
# The assay procedure for PLD2 was similar to that for PLD1, with the exception that arf1, PKC-α, and GTPγS were omitted from the reaction mixture. After addition of enzymes, the reactions were incubated for 1 hour at room temperature. Twenty microliters of 12% trichloroacetic acid (TCA) then were added to each sample, to stop the reaction and to precipitate the unreacted [choline-methyl^3H](16:0, 16:0)PC. Thereafter, the samples were passed through 0.65 μm Millipore 96 well filter plates to removed the excess [choline-methyl^3H](16:0, 16:0)PC. For each sample the filtrate (50 μl), which contained the [^3H]-choline released by PLD cleavage of PC, was analyzed using a TopCount™ Liquid Scintillation Counter, a product of Packard (Meriden, Conn.).
row,IC50,Compound
1,less active,"COC(=O)c1ccc(-c2ccc(/C=C3\SC(=O)NC3=O)o2)cc1 [Compound 31, 4-[5-(2,4-dioxo-thiazolidin-5-ylidenemethyl)-furan-2-yl]-benzoic acid methyl ester]"
2,less active,"COC(=O)c1ccc(-c2ccc(/C=C3\SC(=O)N(CC4CC4)C3=O)o2)cc1 [Compound 33, 4-[5-(3-cyclopropylmethyl-2,4-dioxo-thiazolidin-5-ylidenemethyl)-furan-2-yl]-benzoic acid methyl ester]"
3,less active,"COC(=O)c1ccc(-c2ccc(/C=C3\SC(=S)N(Cc4cc(OC)c(OC)c(OC)c4)C3=O)s2)cc1 [Compound 36, 4-{5-[4-oxo-2-thioxo-3-(3,4,5-trimethoxy-benzyl)-thiazolidin-5-ylidenemethyl]-thiophen-2-yl}-benzoic acid methyl ester]"

# Same assay, conditions: Table 1, monocyclic thiazolidinones of Formula I; PLD isoform not stated; read-out: IC50
row,IC50,Compound
1,4000 nM,"O=C(O)CN1C(=O)/C(=C\c2ccc(-c3ccccc3)o2)SC1=S [Compound 1, [4-oxo-5-(5-phenyl-furan-2-ylmethylene)-2-thioxo-thiazolidin-3-yl]-acetic acid]"
2,2000 nM,"O=C(O)CN1C(=O)/C(=C\c2ccc(-c3cccc(Cl)c3)o2)SC1=S [Compound 3, {5-[5-(3-chloro-phenyl)-furan-2-ylmethylene]-4-oxo-2-thioxo-thiazolidin-3-yl}-acetic acid]"
3,800 nM,"O=C(O)CCN1C(=O)/C(=C/c2ccc(-c3ccccc3Cl)o2)SC1=S [Compound 4, 3-{5-[5-(2-chloro-phenyl)-furan-2-ylmethylene]-4-oxo-2-thioxo-thiazolidin-3-yl}-propionic acid]"
4,1800 nM,"O=C(O)CN1C(=O)/C(=C\c2ccc(-c3ccccc3Cl)o2)SC1=S [Compound 5, {5-[5-(2-chloro-phenyl)-furan-2-ylmethylene]-4-oxo-2-thioxo-thiazolidin-3-yl}-acetic acid]"
5,400 nM,"O=C(O)c1cccc(-c2ccc(/C=C3/SC(=S)N(c4cccc(Cl)c4)C3=O)o2)c1 [Compound 6, 3-{5-[3-(3-chloro-phenyl)-4-oxo-2-thioxo-thiazolidin-5-ylidenemethyl]-furan-2-yl}-benzoic acid]"
6,1300 nM,"COc1ccc(N2C(=O)/C(=C\c3ccc(-c4cccc(C(=O)O)c4)o3)SC2=S)cc1 [Compound 7, 3-{5-[3-(4-methoxy-phenyl)-4-oxo-2-thioxo-thiazolidin-5-ylidenemethyl]-furan-2-yl}-benzoic acid]"
7,1400 nM,"O=C(O)c1ccc(-c2ccc(/C=C3\SC(=S)N(c4cccc(C(F)(F)F)c4)C3=O)o2)cc1 [Compound 8, 4-{5-[4-oxo-2-thioxo-3-(3-trifluoromethyl-phenyl)-thiazolidin-5-ylidenemethyl]-furan-2-yl}-benzoic acid]"
8,600 nM,"CCN1C(=O)/C(=C\c2ccc(-c3cccc(C(=O)O)c3)o2)SC1=S [Compound 9, 3-[5-(3-ethyl-4-oxo-2-thioxo-thiazolidin-5-ylidenemethyl)-furan-2-yl]-benzoic acid]"
9,600 nM,"Cc1cccc(N2C(=O)/C(=C/c3ccc(-c4ccc(C(=O)O)cc4)o3)SC2=S)c1 [Compound 10, 4-[5-(4-oxo-2-thioxo-3-m-tolyl-thiazolidin-5-ylidenemethyl)-furan-2-yl]-benzoic acid]"
10,< 400 nM,"Cc1cccc(N2C(=O)/C(=C/c3ccc(-c4cccc(C(=O)O)c4)o3)SC2=S)c1 [Compound 11, 3-[5-(4-oxo-2-thioxo-3-m-tolyl-thiazolidin-5-ylidenemethyl)-furan-2-yl]-benzoic acid]"
11,< 400 nM,"COc1ccc(N2C(=O)/C(=C\c3ccc(-c4ccc(C(=O)O)cc4)o3)SC2=S)cc1 [Compound 12, 4-{5[3-(4-methoxy-phenyl)-4-oxo-2-thioxo-thiazolidin-5-ylidenemethyl]-furan-2-yl}-benzoic acid]"
12,1700 nM,"O=C(O)c1ccc(-c2ccc(/C=C3\SC(=S)N(c4cccc(F)c4)C3=O)o2)cc1 [Compound 13, 4-{5-[3-(3-fluoro-phenyl)-4-oxo-2-thioxo-thiazolidin-5-ylidenemethyl]-furan-2-yl}-benzoic acid]"
13,< 400 nM,"O=C(O)c1ccc(-c2ccc(/C=C3\SC(=S)N(Cc4ccccc4)C3=O)o2)cc1 [Compound 14, 4-[5-(3-benzyl-4-oxo-2-thioxo-thiazolidin-5-ylidenemethyl)-furan-2-yl]-benzoic acid]"
14,< 400 nM,"Cc1ccc(N2C(=O)/C(=C/c3ccc(-c4ccc(C(=O)O)cc4)o3)SC2=S)c(C)c1 [Compound 15, 4-{5-[3-(2,4-dimethyl-phenyl)-4-oxo-2-thioxo-thiazolidin-5-ylidenemethyl]-furan-2-yl}-benzoic acid]"
15,< 900 nM,"O=C(O)c1cccc(-c2ccc(/C=C3\SC(=S)N(Cc4ccccc4)C3=O)o2)c1 [Compound 16, 3-[5-(3-benzyl-4-oxo-2-thioxo-thiazolidin-5-ylidenemethyl)-furan-2-yl]-benzoic acid]"
16,500 nM,"O=C(O)c1ccc(-c2ccc(/C=C3\SC(=S)N(C4CCCCC4)C3=O)o2)cc1 [Compound 17, 4-[5-(3-cyclohexyl-4-oxo-2-thioxo-thiazolidin-5-ylidenemethyl)-furan-2-yl]-benzoic acid]"

row,IC50,Compound
1,< 400 nM,"O=C(O)c1cccc(-c2ccc(/C=C3\SC(=S)N(c4cccc(F)c4)C3=O)o2)c1 [Compound 18, 3-{5-[3-(3-fluoro-phenyl)-4-oxo-2-thioxo-thiazolidin-5-ylidenemethyl]-furan-2-yl}-benzoic acid]"
2,< 400 nM,"Cc1ccc(N2C(=O)/C(=C/c3ccc(-c4cccc(C(=O)O)c4)o3)SC2=S)c(C)c1 [Compound 19, 3-{5-[3-(2,4-dimethyl-phenyl)-4-oxo-2-thioxo-thiazolidin-5-ylidenemethyl]-furan-2-yl}-benzoic acid]"
3,500 nM,"C=CCN1C(=O)/C(=C\c2ccc(-c3cccc(C(=O)O)c3)o2)SC1=S [Compound 20, 3-[5-(3-allyl-4-oxo-2-thioxo-thiazolidin-5-ylidenemethyl)-furan-2-yl]-benzoic acid]"
4,400 nM,"O=C(O)CCCN1C(=O)/C(=C/c2ccc(-c3ccc(Cl)c(Cl)c3)o2)SC1=S [Compound 21, 4-{5-[5-(3,4-dichloro-phenyl)-furan-2-ylidenemethyl]-4-oxo-2-thioxo-thiazolidin-3-yl}-butyric acid]"
5,1600 nM,"O=C(O)CCCN1C(=O)/C(=C/c2ccc(-c3ccc(O)c(O)c3)o2)SC1=S [Compound 22, 4-{5-[5-(3,4-dihydroxy-phenyl)-furan-2-ylidenemethyl]-4-oxo-2-thioxo-thiazolidin-3-yl}-butyric acid]"
6,9000 nM,"O=C(O)c1ccc(N2C(=O)/C(=C/C=C/c3ccccc3)SC2=S)cc1 [Compound 23, 4-[4-oxo-5-(3-phenyl-allylidene)-2-thioxo-thiazolidin-3-yl]-benzoic acid]"
7,< 400 nM,"O=C(O)c1cccc(-c2ccc(/C=C3\SC(=S)N(C4CCCCC4)C3=O)o2)c1 [Compound 24, 3-[5-(3-Cyclohexyl-4-oxo-2-thioxo-thiazolidin-5-ylidenemethyl)-furan-2-yl]-benzoic acid]"
8,3000 nM,"COC(=O)c1ccc(-c2ccc(/C=C3\SC(=S)N(Cc4cc(OC)c(OC)c(OC)c4)C3=O)o2)cc1 [Compound 26, 4-{5-[4-oxo-2-thioxo-3-(3,4,5-trimethoxy-benzyl)-thiazolidin-5-ylidenemethyl]-furan-2-yl}-benzoic acid methyl ester]"
9,3000 nM,"COc1cc(CN2C(=O)/C(=C/c3ccc(-c4ccc(C(=O)O)cc4)o3)SC2=S)cc(OC)c1OC [Compound 27, 4-{5-[4-oxo-2-thioxo-3-(3,4,5-trimethoxy-benzyl)-thiazolidin-5-ylidenemethyl]-furan-2-yl}-benzoic acid]"
10,1500 nM,"COC(=O)c1ccc(-c2ccc(/C=C3\SC(=S)N(CCCN4CCOCC4)C3=O)o2)cc1 [Compound 28, 4-{5-[3-(3-morpholin-4-yl-propyl)-4-oxo-2-thioxo-thiazolidin-5-ylidenemethyl]-furan-2-yl}-benzoic acid methyl ester]"
11,4000 nM,"O=C(O)c1ccc(-c2ccc(/C=C3\SC(=S)N(c4ccccc4)C3=O)o2)cc1 [Compound 29, 4-[5-(4-oxo-3-phenyl-2-thioxo-thiazolidin-5-ylidenemethyl)-furan-2-yl]-benzoic acid]"
12,16000 nM,"COC(=O)c1ccc(-c2ccc(/C=C3\SC(=S)N(Cc4ccccc4)C3=O)o2)cc1 [Compound 30, 4-[5-(3-benzyl-4-oxo-2-thioxo-thiazolidin-5-ylidenemethyl)-furan-2-yl]-benzoic acid methyl ester]"
13,1500 nM,"O=C(O)c1ccc(-c2ccc(/C=C3\SC(=S)N(Cc4ccccc4C(F)(F)F)C3=O)o2)cc1 [Compound 34, 4-{5-[4-oxo-2-thioxo-3-(2-trifluoromethyl-benzyl)-thiazolidin-5-ylidenemethyl]-furan-2-yl}-benzoic acid]"
14,2000 nM,"Cc1ccc(CN2C(=O)/C(=C/c3ccc(-c4ccc(C(=O)O)cc4)o3)SC2=S)cc1 [Compound 35, 4-{5-[3-(4-methyl-benzyl)-4-oxo-2-thioxo-thiazolidin-5-ylidenemethyl]-furan-2-yl}-benzoic acid]"
15,5000 nM,"O=C(O)c1ccc(-c2ccc(/C=C3\SC(=S)N(Cc4cccs4)C3=O)s2)cc1 [Compound 37, 4-[5-(4-oxo-3-thiophen-2-ylmethyl-2-thioxo-thiazolidin-5-ylidenemethyl)-thiophen-2-yl]-benzoic acid]"

# Reference: patent US20040002526A1, “Phospholipase D inhibitors and uses thereof” (Cell Therapeutics, Inc., priority 2002, published 2004)
